Test results taken from patent US8791148B2, “Substituted benzimidazolone derivatives, medicaments comprising them and their use” (AbbVie Deutschland GmbH & Co. KG, priority 2006, dated 2014).

molecular target: T1, human vasopressin V1b receptor (Homo sapiens, UniProt P47901); assay: Vasopressin V1b receptor binding assay; settings: membranes from CHO-K1 cells with stably expressed human V1b receptors; displacement of 1.5 nM 3H-AVP; read-out: V1b receptor affinity (affinity constant Ki)
T1 construct: expressed in transfected cells; host or cells: CHO-K1 (cell line hV1b-3H2_CHO), membrane preparation
T1 sequence (P47901 1-424): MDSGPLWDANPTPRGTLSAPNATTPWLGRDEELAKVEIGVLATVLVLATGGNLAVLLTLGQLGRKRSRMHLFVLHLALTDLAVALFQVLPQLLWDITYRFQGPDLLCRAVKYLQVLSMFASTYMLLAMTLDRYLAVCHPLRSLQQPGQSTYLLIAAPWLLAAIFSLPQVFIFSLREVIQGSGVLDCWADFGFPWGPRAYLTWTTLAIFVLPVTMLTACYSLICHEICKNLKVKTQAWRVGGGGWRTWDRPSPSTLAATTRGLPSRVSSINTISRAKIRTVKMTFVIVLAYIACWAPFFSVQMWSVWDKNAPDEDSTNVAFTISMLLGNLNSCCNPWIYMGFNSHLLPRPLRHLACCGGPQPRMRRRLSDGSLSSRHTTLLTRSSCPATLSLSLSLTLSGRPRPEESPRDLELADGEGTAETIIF
How it was run: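 Membranes expressing human V1b receptor were incubated with radioligand and test compound (2% DMSO final) in 50 mM Tris, 10 mM MgCl2, 0.1% BSA, pH 7.4, for 60 min at room temperature, in triplicate. 1 uM AVP defined nonspecific binding. Bound ligand was separated by filtration and counted by scintillation; Ki came from nonlinear regression.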

Ki, 0.1 to 0.5 µM:
COc1ccc(S(=O)(=O)n2c(=O)n(C(C(=O)NCCN3CCN(C)CC3)c3ccccc3)c3cc(Cl)ccc32)cc1 (stereo not shown) [Example 115, 2-[6-Chloro-3-(4-methoxybenzenesulfonyl)-2-oxo-2,3-dihydrobenzimidazol-1-yl]-N-[2-(4-methylpiperazin-1-yl)ethyl]-2-phenylacetamide]
COc1ccc(C(C(=O)N2CCN(c3ccncc3)CC2)n2c(=O)n(S(=O)(=O)c3ccc(OC)cc3)c3ccc(Cl)cc32)cc1 (stereo not shown) [Example 33, 5-Chloro-1-(4-methoxybenzenesulfonyl)-3-[1-(4-methoxyphenyl)-2-oxo-2-(4-pyridin-4-ylpiperazin-1-yl)-ethyl]-1,3-dihydrobenzimidazol-2-one]
COc1ccc(S(=O)(=O)n2c(=O)n(C(C(=O)N3CC[C@H](NC(=O)C4CCN(C)CC4)C3)c3ccccc3)c3cc(C#N)ccc32)cc1 (stereo partly drawn) [Example 252, 1-Methyl-piperidine-4-carboxylic acid ((S)-1-{2-[6-cyano-3-(4-methoxybenzenesulfonyl)-2-oxo-2,3-dihydro-benzoimidazol-1-yl]-2-phenyl-acetyl}-pyrrolidin-3-yl)-amide; compound with trifluoroacetic acid]
COc1ccc(S(=O)(=O)n2c(=O)n(C(C(=O)N3CCN(c4ccncc4)CC3)c3ccccc3)c3cc(Cl)ccc32)c(OC)c1 (stereo not shown) [Example 56, 5-Chloro-1-(2,4-dimethoxybenzenesulfonyl)-3-[2-oxo-1-phenyl-2-(4-pyridin-4-ylpiperazin-1-yl)-ethyl]-1,3-dihydrobenzimidazol-2-one]
COc1ccc(S(=O)(=O)n2c(=O)n(C(C(=O)NCCCN3CCN(C)CC3)c3ccccc3)c3cc(Cl)ccc32)cc1 (stereo not shown) [Example 137, 2-[6-Chloro-3-(4-methoxybenzenesulfonyl)-2-oxo-2,3-dihydrobenzimidazol-1-yl]-N-[3-(4-methylpiperazin-1-yl)propyl]-2-phenyl-acetamide]
CCCN1CCN([C@H]2CCN(C(=O)C(c3ccccc3)n3c(=O)n(S(=O)(=O)c4ccccc4)c4ccc(C#N)cc43)C2)CC1 (stereo partly drawn) [Example 202, 1-Benzenesulfonyl-2-oxo-3-{2-oxo-1-phenyl-2-[(S)-3-(4-propylpiperazin-1-yl)-pyrrolidin-1-yl]ethyl}-2,3-dihydro-1H-benzimidazole-5-carbonitrile]

Ki, < 0.1 µM:
CCCN1CCC(N[C@H]2CCN(C(=O)C(c3ccccc3)n3c(=O)n(S(=O)(=O)c4ccc(OC)cc4)c4ccc(C#N)cc43)C2)CC1 (stereo partly drawn) [Example 210, 1-(4-Methoxybenzenesulfonyl)-2-oxo-3-{2-oxo-1-phenyl-2-[(S)-3-(1-propylpiperidin-4-ylamino)pyrrolidin-1-yl]ethyl}-2,3-dihydro-1H-benzimidazole-5-carbonitrile]
N#Cc1ccc(S(=O)(=O)n2c(=O)n(C(C(=O)N3CCN(c4ccncc4)CC3)c3ccccc3)c3cc(Cl)ccc32)cc1 (stereo not shown) [Example 57, 4-{5-Chloro-2-oxo-3-[2-oxo-1-phenyl-2-(4-pyridin-4-ylpiperazin-1-yl)-ethyl]-2,3-dihydrobenzimidazole-1-sulfonyl}-benzonitrile]
COc1ccc(S(=O)(=O)n2c(=O)n(C(C(=O)N(C)CCN(C)C)c3ccccc3)c3cc(Cl)ccc32)cc1 (stereo not shown) [Example 106, 2-[6-Chloro-3-(4-methoxybenzenesulfonyl)-2-oxo-2,3-dihydrobenzimidazol-1-yl]-N-(2-dimethylaminoethyl)-N-methyl-2-phenylacetamide]
CCN1CCN([C@H]2CCN(C(=O)C(c3ccccc3)n3c(=O)n(S(=O)(=O)c4ccc(OC)cc4)c4ccc(Cl)cc43)C2)CC1 (stereo partly drawn) [Example 152, 5-Chloro-3-{2-[(S)-3-(4-ethylpiperazin-1-yl)pyrrolidin-1-yl]-2-oxo-1-phenylethyl}-1-(4-methoxybenzenesulfonyl)-1,3-dihydrobenzimidazol-2-one]
CCCN1CCN([C@H]2CCN(C(=O)C(c3ccccc3)n3c(=O)n(S(=O)(=O)c4ccc(OC)cc4OC)c4ccc(C#N)cc43)C2)CC1 (stereo partly drawn) [Example 199, 1-(2,4-Dimethoxybenzenesulfonyl)-2-oxo-3-{2-oxo-1-phenyl-2-[(S)-3-(4-propylpiperazin-1-yl)pyrrolidin-1-yl]ethyl}-2,3-dihydro-1H-benzimidazole-5-carbonitrile]

Ki, 0.5 to 10 µM:
COc1ccccc1C(C(=O)N1CCN(C2CCN(C)CC2)CC1)n1c(=O)n(S(=O)(=O)c2ccc(C#N)cc2)c2ccc(Cl)cc21 (stereo not shown) [Example 16, 4-(5-Chloro-3-{1-(2-methoxyphenyl)-2-[4-(1-methylpiperidin-4-yl)piperazin-1-yl]-2-oxoethyl}-2-oxo-2,3-dihydrobenzoimidazole-1-sulfonyl)benzonitrile]
COc1ccc(S(=O)(=O)n2c(=O)n(CC(=O)N3CCCC3)c3cc(Cl)ccc32)cc1 [Example 90, 5-Chloro-1-(4-methoxybenzenesulfonyl)-3-(2-oxo-2-pyrrolidin-1-yl-ethyl)-1,3-dihydrobenzimidazol-2-one]
COc1ccccc1C(C(=O)N1CCN(c2ccncc2)CC1)n1c(=O)n(S(=O)(=O)c2cccc3cccnc23)c2ccc(Cl)cc21 (stereo not shown) [Example 13, 5-Chloro-3-[1-(2-methoxyphenyl)-2-oxo-2-(4-pyridin-4-ylpiperazin-1-yl)-ethyl]-1-(quinoline-8-sulfonyl)-1,3-dihydrobenzimidazol-2-one]
COc1ccc(S(=O)(=O)n2c(=O)n(C(C(=O)N3CCC(N)CC3)c3ccccc3)c3cc(C#N)ccc32)cc1 (stereo not shown) [Example 239, 3-[2-(4-Amino-piperidin-1-yl)-2-oxo-1-phenyl-ethyl]-1-(4-methoxybenzenesulfonyl)-2-oxo-2,3-dihydro-1H-benzoimidazole-5-carbonitrile]
COc1ccccc1C(C(=O)N1CCN(C2CCN(C)CC2)CC1)n1c(=O)n(S(=O)(=O)c2cccc3cccnc23)c2ccc(Cl)cc21 (stereo not shown) [Example 15, 5-Chloro-3-{1-(2-methoxyphenyl)-2-[4-(1-methylpiperidin-4-yl)piperazin-1-yl]-2-oxoethyl}-1-(quinoline-8-sulfonyl)-1,3-dihydrobenzimidazol-2-one]
COc1ccc(S(=O)(=O)n2c(=O)n(C(C(=O)N3CCN(c4ccncc4)CC3)c3ccccc3OC)c3cc(Cl)ccc32)c(OC)c1 (stereo not shown) [Example 12, 5-Chloro-1-(2,4-dimethoxybenzenesulfonyl)-3-[1-(2-methoxyphenyl)-2-oxo-2-(4-pyridin-4-ylpiperazin-1-yl)ethyl]-1,3-dihydrobenzimidazol-2-one]
COc1ccc(S(=O)(=O)n2c(=O)n(C(C(=O)NCCCN3CCCC3=O)c3ccccc3)c3cc(Cl)ccc32)cc1 (stereo not shown) [Example 125, 2-[6-Chloro-3-(4-methoxybenzenesulfonyl)-2-oxo-2,3-dihydrobenzimidazol-1-yl]-N-[3-(2-oxopyrrolidin-1-yl)propyl]-2-phenylacetamide]
COc1ccc(S(=O)(=O)n2c(=O)n(CC(=O)N3CCN(C)CC3)c3cc(Cl)ccc32)cc1 [Example 85, 5-Chloro-1-(4-methoxybenzenesulfonyl)-3-[2-(4-methylpiperazin-1-yl)-2-oxoethyl]-1,3-dihydrobenzimidazol-2-one]
